Reference: patent US4212881A, “Streptovaricin C derivatives” (priority 1978, dated 1980)

How the values were obtained:
[1] = molecular target: reverse-transcriptase of mouse Sarcoma virus (Moloney murine leukemia virus, UniProt P03355); assay: Effect for inhibiting reverse-transcriptase of mouse Sarcoma virus; type: biochemical; conditions: for Percent inhibition (%): 300 μg/ml, virus protein (MLV-moloney), 37° C. 60 minutes; for inhibition at 300 µg/mL: read-out: Percent inhibition (%)
Method: Effect for inhibiting reverse-transcriptase of mouse Sarcoma virus.
The effect for inhibition was determined as follows:
Methanol solution containing each active ingredient at a concentration of 6 mg/ml.
Solution containing 240 μg of virus protein (MLV-moloney) in 1 ml of a buffer solution of 20 mM-tris-hydrochloric acid (pH 7.8), 0.1 M-sodium chloride and 1 mM of dithiotersitol (DTT).
Reaction medium containing 46 mM tris-hydrochloric acid (pH 8.1) 92 mM potassium chloride, 15.4 mM manganese chloride, 0.77 mM-dATP, 0.77 mM-dCTP, 0.77 mM-dGTP, 0.23 μM-3H-TTP (50 ci/mM), 7.7 mM-DTT and 0.038% NP-40.
The reaction mixture was prepared by sequentially admixing (a) 5 μl, with (b) 30 μl and (c) 65 μl and the mixture was thoroughly mixed and kept at 0° C. for 5 minutes. Then, the reaction mixture was kept at 37° C. for 60 minutes and 1 ml of cold 10% trichloroacetic acid solution was added to the reaction mixture to stop the reaction. The mixture was kept at 0° C. for 20 minutes and an insoluble components were collected on each Whatman's paper GF/c (diameter of 2.5 cm) and washed with 5 ml of cold 5% trichloroacetic acid. The residue was dried in an oven at 80° C. and charged in a viral bottle containing 10 ml of toluene solution containing scintillator PPO-POPOP, and radioactivity was measured by a scintillation spectrometer.

mouse = assay: Acute toxicity (LD50) in mouse; type: in vivo
Method: Acute toxicity of the novel streptovaricin C derivatives (I) are remarkably low level. For example, 19-O-methyl compound (I) has LD50 to mouse of more than 1000 mg/kg in intramuscular injection and more than 3000 mg/kg in oral dose.

Compound	inhibition at 300 µg/mL [1]	further results
19-O-benzyl atropisodamavaricin Fc (containing 19-O-benzyl damavaricin Fc) [Example 2]	–	Percent inhibition (%) [1]: 67%
19-O-methyl-atropisodamavaricin Fc (containing 19-O-methyl damavaricin Fc) [Example 1]	–	LD50 (mouse; intramuscular injection): more than 1000 mg/kg; LD50 (mouse; oral dose): more than 3000 mg/kg; Percent inhibition (%) [1]: 41%
CCOc1c(C)c(O)c2c3c1C(=O)C(C)=CC(C)(O)C(O)C(C)C(O)C1C(=O)OC(C(C)C=CC=C(C)C(=O)NC(=C(C)C3=O)C2=O)C(C)C1O (stereo not drawn) [Example 4]	60%	–
CCCOc1c(C)c(O)c2c3c1C(=O)C(C)=CC(C)(O)C(O)C(C)C(O)C1C(=O)OC(C(C)C=CC=C(C)C(=O)NC(=C(C)C3=O)C2=O)C(C)C1O (stereo not drawn) [Example 5]	52%	–
CCCCOc1c(C)c(O)c2c3c1C(=O)C(C)=CC(C)(O)C(O)C(C)C(O)C1C(=O)OC(C(C)C=CC=C(C)C(=O)NC(=C(C)C3=O)C2=O)C(C)C1O (stereo not drawn) [Example 6]	78%	–
CCCCCOc1c(C)c(O)c2c3c1C(=O)C(C)=CC(C)(O)C(O)C(C)C(O)C1C(=O)OC(C(C)C=CC=C(C)C(=O)NC(=C(C)C3=O)C2=O)C(C)C1O (stereo not drawn) [Example 7]	52%	–
CCCCCCOc1c(C)c(O)c2c3c1C(=O)C(C)=CC(C)(O)C(O)C(C)C(O)C1C(=O)OC(C(C)C=CC=C(C)C(=O)NC(=C(C)C3=O)C2=O)C(C)C1O (stereo not drawn) [Example 8]	60%	–
CCCCCCCCOc1c(C)c(O)c2c3c1C(=O)C(C)=CC(C)(O)C(O)C(C)C(O)C1C(=O)OC(C(C)C=CC=C(C)C(=O)NC(=C(C)C3=O)C2=O)C(C)C1O (stereo not drawn) [Example 10]	41%	–
CCCCCCCCCCCOc1c(C)c(O)c2c3c1C(=O)C(C)=CC(C)(O)C(O)C(C)C(O)C1C(=O)OC(C(C)C=CC=C(C)C(=O)NC(=C(C)C3=O)C2=O)C(C)C1O (stereo not drawn) [Example 13]	78%	–
C=CCOc1c(C)c(O)c2c3c1C(=O)C(C)=CC(C)(O)C(O)C(C)C(O)C1C(=O)OC(C(C)C=CC=C(C)C(=O)NC(=C(C)C3=O)C2=O)C(C)C1O (stereo not drawn) [Example 20]	65%	–
CC1=CC=CC(C)C2OC(=O)C(C(O)C2C)C(O)C(C)C(O)C(C)(O)C=C(C)C(=O)c2c(OC3CCCCC3)c(C)c(O)c3c2C(=O)C(C)=C(NC1=O)C3=O (stereo not drawn) [Example 22]	45%	–
CC(=O)COc1c(C)c(O)c2c3c1C(=O)C(C)=CC(C)(O)C(O)C(C)C(O)C1C(=O)OC(C(C)C=CC=C(C)C(=O)NC(=C(C)C3=O)C2=O)C(C)C1O (stereo not drawn) [Example 24]	58%	–
CC1=CC=CC(C)C2OC(=O)C(C(O)C2C)C(O)C(C)C(O)C(C)(O)C=C(C)C(=O)c2c(OCC(=O)c3ccccc3)c(C)c(O)c3c2C(=O)C(C)=C(NC1=O)C3=O (stereo not drawn) [Example 30]	50%	–
